The results in this text go back to US20240279278A1, “NMU RECEPTOR 2 AGONISTS” (Boehringer Ingelheim International GmbH, priority 2023, published 2024).

The nature of one data set: in vivo. On the set-up: species or system NMRI mice. Particulars: male, NMRI, mouse, iv. How it is done: Example 5: Pharmacokinetics Intravenous (iv) PK in Mouse Pharmacokinetic parameters of the test compounds were determined after intravenous administration to Naval Medical Research Institute (NMRI) mice. Male NMRI mice were obtained either from Charles River (Germany) or from Janvier (France) weighing approximately 30 g to 40 g. Mice were housed in standard cages with light cycle of 12-hour dark and 12-hour light. Standardized food and water were offered ad libitum to the animals during the whole experimental period. The respective peptide was dissolved in 50 mM phosphate buffer (pH 7.4) containing 3.5% mannitol. Intravenous doses of 30 nmol/kg were given via a tail vein. Serial blood samples were collected from the vena saphena into tubes containing EDTA as anticoagulant at different time points up to 48 hours post dosing. After centrifugation for approximately 5 minutes, plasma samples were transferred to 96-well Polymerase Chain Reaction (PCR) plates, immediately frozen and kept at approximately −20° C. until analyzed for plasma concentration by liquid chromatography mass spectrometry (LC-MS/MS). Individual plasma concentration-time profiles were analyzed by a non-compartmental approach, and the resulting pharmacokinetic parameters were determined.

A short description of data set [1]: Effect on acute food intake in normal NMRI mice. The settings on record: male NMRI mice, single subcutaneous dose 100 nmol/kg, normalized to vehicle group. The format is in vivo. How it is done:
Example 9: Pharmacodynamics Effect on Acute Food Intake in Normal NMRI Mice
Male NMRI mice were obtained from Charles River (Charles River, Research Models & Services Germany GmbH) or from JanVier (JanVier Labs, France) at 3 weeks of age. The animals were group housed 4 mice pr. cage under a 12/12 hours dark-light cycle, light off at 3 pm. Room temperature was controlled to 21° C.±1° C., with 60%±20% humidity. Animals had ad libitum access to regular rodent chow (KLIBA Nafag 3430 or Altromin 1324, Brogaarden, Denmark) and tap water. Animals were transferred at 6 weeks of age, 5-7 days before the start of the study to a real-time food intake monitoring system, HM-2 system (MBRose, Denmark), to allow acclimatization to experimental conditions. As the animals were uniquely identified with microchips, each individual animal was identified by its microchip upon entry and exit from the food channel. Randomization of the mice for each study group (n=8-11) was based on body weight measured the day before the start of the study. A vehicle-treated (50 mM acetate buffer pH 7.4 with 3.5% mannitol) group was included in each experiment. Six hours before the start of the night phase animals were fasted. One hour before the dark phase animals were dosed once subcutaneously with test peptide. Food intake was reported hourly for a period of 24 hours. The food intake of the treated groups was normalized (in %) to the average food intake of the group receiving vehicle (table 10). Statistical significance was evaluated using One-way analysis of variance with Bonferroni's multiple comparison test. P<0.05 was considered statistically significant.

A further data set deals with human NMUR2 receptor (Homo sapiens, UniProt Q9GZQ4). The experiment in a line: IP1 Gq HTRF assay, activation of human NMUR2 in human plasma. Type of data set: cell-based. The settings on record: CHO-K1 cells expressing human NMUR2, 100% human plasma; read-out: EC50 (hNMUR2) human plasma. Also noted: expressed in transfected cells; host or cells: CHO-K1. A digest of the protocol:
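EC50 obtained via 4-parameter sigmoidal regression of HTRF IP-One signal (665 nm/620 nm), which falls as intracellular IP1 rises. Stimulation: 1 h, 37° C, peptides in human plasma plus 50 mM LiCl, 1% DMSO final, on NMUR2-expressing CHO-K1 cells, 8 concentrations.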
On the technique in general: In TR-FRET formats the signal depends on donor and acceptor labels being close together.

Residues, ends and D or L forms follow the SMILES beside them.

Sequence of human NMUR2 receptor (Q9GZQ4 whole entry): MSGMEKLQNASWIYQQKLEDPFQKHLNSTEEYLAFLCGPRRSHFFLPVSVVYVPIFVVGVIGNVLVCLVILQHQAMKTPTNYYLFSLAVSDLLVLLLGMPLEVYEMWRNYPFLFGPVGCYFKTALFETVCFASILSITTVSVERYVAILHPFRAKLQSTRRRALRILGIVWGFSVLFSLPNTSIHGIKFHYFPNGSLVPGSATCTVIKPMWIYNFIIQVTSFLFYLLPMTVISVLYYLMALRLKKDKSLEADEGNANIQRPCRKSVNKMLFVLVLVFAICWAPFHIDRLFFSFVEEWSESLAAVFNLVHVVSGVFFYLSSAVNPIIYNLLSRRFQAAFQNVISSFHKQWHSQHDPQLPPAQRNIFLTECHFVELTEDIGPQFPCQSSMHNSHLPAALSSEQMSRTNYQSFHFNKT

`CCCC[C@H](NC(=O)[C@H](CC(C)C)N(C)C(=O)[C@H](Cc1ccccc1)NC(=O)[C@H](Cc1ccc(O)cc1)NC(=O)CN1CCN(CCNC(=O)CN(C)C(=O)CN(C)C(=O)CN(C)C(=O)CN(C)C(=O)CN(C)C(=O)CN(C)C(=O)CN(C)C(=O)CN(C)C(=O)CN(C)C(=O)CN(C)C(=O)CN(C)C(=O)CN(C)C(=O)CN(C)C(=O)CN(C)C(=O)CN(C)C(=O)CC[C@H](NC(=O)CC[C@H](NC(=O)CC[C@H](NC(=O)CCCCCCCCCCCCCCCCCCC(=O)O)C(=O)O)C(=O)O)C(=O)O)CC1)C(=O)N[C@@H](CCCN)C(=O)N1CCC[C@H]1C(=O)N[C@@H](CCCNC(=N)N)C(=O)NCC(N)=O` [Compound 1, C20DA-gGlu3-Sar15-AEPipAc-Tyr-Phe-NMeLeu-Nle-Orn-Pro-Arg-Gly-NH2] (HELM PEPTIDE1{[O=C(O)CCCCCCCCCCCCCCCCCCC(=O)[*:2]].[gGlu].[gGlu].[gGlu].[Sar].[Sar].[Sar].[Sar].[Sar].[Sar].[Sar].[Sar].[Sar].[Sar].[Sar].[Sar].[Sar].[Sar].[Sar].[O=C(CN1CCN(CCN[*:1])CC1)[*:2]].Y.F.[meL].[Nle].[Orn].P.R.G.[am]}$$$$V2.0): the MRT in the data set “in vivo” and in the data set “in vivo” (30 nmol/kg) was 38.1 h in each case. For the same molecule, the “Acute Food Intake 24 h” value in data set [1] came to 31% vehicle. For the same molecule, at human NMUR2 receptor, the half-maximal effective concentration (EC50) (usually the concentration needed to bring the measured effect to its halfway point) amounted to 2.8 nM.
In the case of `CCCC[C@H](NC(=O)[C@H](CC(C)C)N(C)C(=O)[C@H](Cc1ccccc1)NC(=O)[C@H](Cc1ccc(O)cc1)NC(=O)CN1CCN(CCNC(=O)CN(C)C(=O)CN(C)C(=O)CN(C)C(=O)CN(C)C(=O)CN(C)C(=O)CN(C)C(=O)CN(C)C(=O)CN(C)C(=O)CN(C)C(=O)CN(C)C(=O)CN(C)C(=O)CN(C)C(=O)CN(C)C(=O)CN(C)C(=O)CN(C)C(=O)CC[C@H](NC(=O)CC[C@H](NC(=O)CC[C@H](NC(=O)CCCCCCCCCCCCCCCCC(=O)O)C(=O)O)C(=O)O)C(=O)O)CC1)C(=O)N[C@@H](CCCNC(=N)N)C(=O)N1CCC[C@H]1C(=O)N[C@@H](CCCNC(=N)N)C(=O)NCC(N)=O` [Compound 7, C18DA-gGlu3-Sar15-AEPipAc-Tyr-Phe-NMeLeu-Nle-Arg-Pro-Arg-Gly-NH2] (HELM PEPTIDE1{[O=C(O)CCCCCCCCCCCCCCCCC(=O)[*:2]].[gGlu].[gGlu].[gGlu].[Sar].[Sar].[Sar].[Sar].[Sar].[Sar].[Sar].[Sar].[Sar].[Sar].[Sar].[Sar].[Sar].[Sar].[Sar].[O=C(CN1CCN(CCN[*:1])CC1)[*:2]].Y.F.[meL].[Nle].R.P.R.G.[am]}$$$$V2.0), the mean residence time (MRT) in the data set “in vivo” and in “in vivo” (30 nmol/kg) was 17.4 h each time. Also, the “Acute Food Intake 24 h” value in data set [1] turned out to be 46% vehicle. In addition, the EC50 on human NMUR2 receptor turned out to be 4.4 nM.
In the case of `CCCC[C@H](NC(=O)[C@H](CC(C)C)N(C)C(=O)[C@H](Cc1ccccc1)NC(=O)[C@H](Cc1ccc(O)cc1)NC(=O)CN1CCN(CCNC(=O)CN(C)C(=O)CN(C)C(=O)CN(C)C(=O)CN(C)C(=O)CN(C)C(=O)CN(C)C(=O)CN(C)C(=O)CN(C)C(=O)CN(C)C(=O)CN(C)C(=O)CN(C)C(=O)CN(C)C(=O)CN(C)C(=O)CN(C)C(=O)CN(C)C(=O)CC[C@H](NC(=O)CC[C@H](NC(=O)CC[C@H](NC(=O)CCCCCCCCCCCCCCCCC(=O)O)C(=O)O)C(=O)O)C(=O)O)CC1)C(=O)N[C@@H](CCN)C(=O)N1CCC[C@H]1C(=O)N[C@@H](CCCNC(=N)N)C(=O)NCC(N)=O` [Compound 26, C18DA-gGlu3-Sar15-AEPipAc-Tyr-Phe-NMeLeu-Nle-Dbu-Pro-Arg-Gly-NH2] (HELM PEPTIDE1{[O=C(O)CCCCCCCCCCCCCCCCC(=O)[*:2]].[gGlu].[gGlu].[gGlu].[Sar].[Sar].[Sar].[Sar].[Sar].[Sar].[Sar].[Sar].[Sar].[Sar].[Sar].[Sar].[Sar].[Sar].[Sar].[O=C(CN1CCN(CCN[*:1])CC1)[*:2]].Y.F.[meL].[Nle].[Dab].P.R.G.[am]}$$$$V2.0), the mean residence time (MRT) (as a rule, the average time that molecules of a dose stay in the body) in the data set “in vivo” (30 nmol/kg) was 12.4 h. The “Acute Food Intake 24 h” value in data set [1] was 37% vehicle. At human NMUR2 receptor, the EC50 was determined as 3.9 nM.
The matching figures for `CCCC[C@H](NC(=O)[C@H](CC(C)C)N(C)C(=O)[C@H](Cc1ccccc1)NC(=O)[C@H](Cc1ccc(O)cc1)NC(=O)CN1CCN(CCNC(=O)CN(C)C(=O)CN(C)C(=O)CN(C)C(=O)CN(C)C(=O)CN(C)C(=O)CN(C)C(=O)CN(C)C(=O)CN(C)C(=O)CN(C)C(=O)CN(C)C(=O)CN(C)C(=O)CN(C)C(=O)CN(C)C(=O)CN(C)C(=O)CN(C)C(=O)CC[C@H](NC(=O)CC[C@H](NC(=O)CC[C@H](NC(=O)CCCCCCCCCCCCCCCCCCC(=O)O)C(=O)O)C(=O)O)C(=O)O)CC1)C(=O)N[C@@H](CCN)C(=O)N1CCC[C@H]1C(=O)N[C@@H](CCCNC(=N)N)C(=O)NCC(N)=O` [Compound 42, C20DA-gGlu3-Sar15-AEPipAc-Tyr-Phe-NMeLeu-Nle-Dbu-Pro-Arg-Gly-NH2] (HELM PEPTIDE1{[O=C(O)CCCCCCCCCCCCCCCCCCC(=O)[*:2]].[gGlu].[gGlu].[gGlu].[Sar].[Sar].[Sar].[Sar].[Sar].[Sar].[Sar].[Sar].[Sar].[Sar].[Sar].[Sar].[Sar].[Sar].[Sar].[O=C(CN1CCN(CCN[*:1])CC1)[*:2]].Y.F.[meL].[Nle].[Dab].P.R.G.[am]}$$$$V2.0): 31.2 h, 41% vehicle and 5.8 nM.
The matching figures for `CCCC[C@H](NC(=O)[C@H](CC(C)C)N(C)C(=O)[C@H](Cc1ccccc1)NC(=O)[C@H](Cc1ccc(O)cc1)NC(=O)CN1CCN(CCNC(=O)CN(C)C(=O)CN(C)C(=O)CN(C)C(=O)CN(C)C(=O)CN(C)C(=O)CN(C)C(=O)CN(C)C(=O)CN(C)C(=O)CN(C)C(=O)CN(C)C(=O)CN(C)C(=O)CN(C)C(=O)CN(C)C(=O)CN(C)C(=O)CN(C)C(=O)CC[C@H](NC(=O)CC[C@H](NC(=O)CC[C@H](NC(=O)CCCCCCCCCCCCCCCCCCC(=O)O)C(=O)O)C(=O)O)C(=O)O)CC1)C(=O)N[C@@H](CCN)C(=O)N(C)[C@@H](C)C(=O)N[C@@H](CCCNC(=N)N)C(=O)NCC(N)=O` [Compound 43, C20DA-gGlu3-Sar15-AEPipAc-Tyr-Phe-NMeLeu-Nle-Dbu-NMeAla-Arg-Gly-NH2] (HELM PEPTIDE1{[O=C(O)CCCCCCCCCCCCCCCCCCC(=O)[*:2]].[gGlu].[gGlu].[gGlu].[Sar].[Sar].[Sar].[Sar].[Sar].[Sar].[Sar].[Sar].[Sar].[Sar].[Sar].[Sar].[Sar].[Sar].[Sar].[O=C(CN1CCN(CCN[*:1])CC1)[*:2]].Y.F.[meL].[Nle].[Dab].[meA].R.G.[am]}$$$$V2.0): 37.7 h, 28% vehicle and 10.1 nM.
